Laboratory results taken from US9890166B2, “Imidazopyrrolidine derivatives and their use in the treatment of disease” (NOVARTIS AG, priority 2013, dated 2018).

What was measured:
K-562 cells = assay: Cell growth inhibition assay (CellTiter-Glo), K-562; details: for GI50: Homo sapiens, K562, read-out: K-562 GI50; for K-562 TGI: K-562 cells, total growth inhibition, CellTiter-Glo;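 as to all read-outs here: cellular ATP measured by luminescence after 4 days of exposure, 3-fold dilution series from 10 µM, DMSO vehicle-treated cells define 100%, cell-free medium wells −100%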
BRD3 (His-Brd3(20-477)) = BRD3 (His-Brd3(20-477)) (Homo sapiens (Human), UniProt Q15059); assay: TR-FRET in-vitro binding assay for BRD3; details: single determination or n ≧ 2 independent determinations, read-out: Biochemical IC50 BRD3
Procedure, shortened: (§1)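 TR-FRET binding with His-tagged bromodomain constructs, 8-point compound dilutions from 10 mM DMSO stocks. Reactions incubated 35 min at 30° C in 13.55 μL, read on an EnVision multilabel reader.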

MV-4-11 cells = assay: Cell growth inhibition assay (CellTiter-Glo), MV-4-11; details: for GI50: Homo sapiens, MV4-11, read-out: MV-4-11 GI50; for MV-4-11 TGI: MV-4-11 cells, total growth inhibition, CellTiter-Glo;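 as to all read-outs here: cellular ATP luminescence after 4 days, 3-fold dilution series from 10 µM top dose, vehicle (0.1% DMSO) set to 100%, cell-free medium set to −100%, day 0 corrected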
THP-1 cells = assay: Cell growth inhibition assay (CellTiter-Glo), THP-1; details: for GI50: Homo sapiens, THP-1, read-out: THP-1 GI50; for THP-1 TGI: THP-1 cells, total growth inhibition, CellTiter-Glo;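 as to all read-outs here: viability read as cellular ATP luminescence after 4 days, 3-fold dilution series from 10 µM, DMSO vehicle-treated cells taken as 100%, cell-free medium wells as −100%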
BRD4 (His-Brd4(44-477)) = BRD4 (His-Brd4(44-477)) (Homo sapiens (Human), UniProt O60885); assay: TR-FRET in-vitro binding assay for BRD4; details: single determination or n ≧ 2 independent determinations, read-out: Biochemical IC50 BRD4
Procedure, shortened: as §1

[1] = molecular target: CREBBP bromodomain (His-CREBBP(1081-1197)) (Homo sapiens (Human), UniProt Q92793); assay: AlphaScreen in-vitro binding assay for CREBBP; details: single determination or n ≧ 2 independent determinations, read-out: Biochemical IC50 CREBBP
Procedure, shortened: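 Reactions at 30 °C for 35 min, then Ni-chelate acceptor and streptavidin donor beads in HEPES pH 7.5, NaCl, Tween20, BSA, 60 min at room temperature. Eight-point compound series; IC50 by non-linear regression of percent inhibition.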

BRD2 (His-Brd2(60-472)) = BRD2 (His-Brd2(60-472)) (Homo sapiens (Human), UniProt P25440); assay: TR-FRET in-vitro binding assay for BRD2; details: single determination or n ≧ 2 independent determinations, read-out: Biochemical IC50 BRD2
Procedure, shortened: as §1

Chain of BRD2 (His-Brd2(60-472)) (P25440 60-472): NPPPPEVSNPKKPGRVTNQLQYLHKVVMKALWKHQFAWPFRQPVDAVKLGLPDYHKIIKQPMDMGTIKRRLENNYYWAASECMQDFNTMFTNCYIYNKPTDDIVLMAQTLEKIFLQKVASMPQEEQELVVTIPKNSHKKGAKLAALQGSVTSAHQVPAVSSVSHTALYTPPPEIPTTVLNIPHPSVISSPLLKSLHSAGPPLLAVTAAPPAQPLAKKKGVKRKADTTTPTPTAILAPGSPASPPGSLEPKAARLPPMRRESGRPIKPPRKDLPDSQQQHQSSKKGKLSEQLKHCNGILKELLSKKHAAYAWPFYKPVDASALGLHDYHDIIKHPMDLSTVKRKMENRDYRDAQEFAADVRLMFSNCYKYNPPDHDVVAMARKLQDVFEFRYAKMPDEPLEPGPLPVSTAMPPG
Chain of BRD3 (His-Brd3(20-477)) (Q15059 20-477): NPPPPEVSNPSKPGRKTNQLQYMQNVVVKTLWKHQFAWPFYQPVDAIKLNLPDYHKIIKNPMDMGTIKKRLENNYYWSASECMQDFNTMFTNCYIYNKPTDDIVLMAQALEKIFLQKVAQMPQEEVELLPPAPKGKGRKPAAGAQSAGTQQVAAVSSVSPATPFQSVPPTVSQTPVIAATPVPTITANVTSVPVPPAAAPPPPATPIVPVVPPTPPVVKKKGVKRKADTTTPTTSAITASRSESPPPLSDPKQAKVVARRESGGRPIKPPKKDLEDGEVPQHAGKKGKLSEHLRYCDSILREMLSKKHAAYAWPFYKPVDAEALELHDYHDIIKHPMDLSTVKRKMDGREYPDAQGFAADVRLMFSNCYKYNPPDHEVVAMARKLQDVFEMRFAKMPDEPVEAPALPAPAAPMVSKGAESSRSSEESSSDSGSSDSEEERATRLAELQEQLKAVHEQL
Chain of CREBBP bromodomain (His-CREBBP(1081-1197)) (Q92793 1081-1197): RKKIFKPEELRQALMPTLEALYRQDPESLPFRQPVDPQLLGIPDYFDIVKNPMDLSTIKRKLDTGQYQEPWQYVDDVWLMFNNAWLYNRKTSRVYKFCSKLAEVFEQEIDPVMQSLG

Row | GI50 (K-562 cells) | IC50 (BRD3 (His-Brd3(20-477))) | GI50 (MV-4-11 cells) | GI50 (THP-1 cells) | IC50 (BRD4 (His-Brd4(44-477))) | IC50 [1] | IC50 (BRD2 (His-Brd2(60-472))) | Structure (SMILES) | K-562 TGI (K-562 cells) | MV-4-11 TGI (MV-4-11 cells) | THP-1 TGI (THP-1 cells)
1 | 0.184 µM | 0.013 µM | 0.0316 µM | 0.0634 µM | 0.012 µM | 6.1 µM | 0.024 µM | Cc1cc(N2C(=O)c3nc(C4=CCN(C(=O)OCC(C)C)CC4)n(C(C)C)c3C2c2ccc(Cl)cc2)cn2c(C)nnc12 (stereo not drawn) [Example 69, isobutyl 4-(6-(4-chlorophenyl)-5-(3,8-dimethyl-[1,2,4]triazolo[4,3-a]pyridin-6-yl)-1-isopropyl-4-oxo-1,4,5,6-tetrahydropyrrolo[3,4-d]imidazol-2-yl)-5,6-dihydropyridine-1(2H)-carboxylate] | >10 µM | 0.05845 µM | 0.1675 µM
2 | 0.353 µM | 0.017 µM | 0.0295 µM | 0.0599 µM | 0.0175 µM | 6.65 µM | 0.032 µM | CCOC(=O)N1CC=C(c2nc3c(n2C(C)C)C(c2ccc(Cl)cc2)N(c2cc(C)c4nnc(C)n4c2)C3=O)CC1 (stereo not drawn) [Example 70, ethyl 4-(6-(4-chlorophenyl)-5-(3,8-dimethyl-[1,2,4]triazolo[4,3-a]pyridin-6-yl)-1-isopropyl-4-oxo-1,4,5,6-tetrahydropyrrolo[3,4-d]imidazol-2-yl)-5,6-dihydropyridine-1(2H)-carboxylate] | >10 µM | 0.0413 µM | 0.188 µM
3 | 0.228 µM | 0.018 µM | 0.0313 µM | 0.0637 µM | 0.0185 µM | 4.3 µM | 0.033 µM | Cc1cc(N2C(=O)c3nc(C4=CCN(C(=O)OC(C)C)CC4)n(C(C)C)c3C2c2ccc(Cl)cc2)cn2c(C)nnc12 (stereo not drawn) [Example 71, isopropyl 4-(6-(4-chlorophenyl)-5-(3,8-dimethyl-[1,2,4]triazolo[4,3-a]pyridin-6-yl)-1-isopropyl-4-oxo-1,4,5,6-tetrahydropyrrolo[3,4-d]imidazol-2-yl)-5,6-dihydropyridine-1(2H)-carboxylate] | >10 µM | 0.0445 µM | 0.1385 µM
4 | 1.34 µM | < 0.011 µM | 0.0458 µM | 0.222 µM | 0.012 µM | 5.1 µM | 0.023 µM | Cc1cc(N2C(=O)c3nc(C4=CCN(C(=O)NC(C)(C)C)CC4)n(C(C)C)c3C2c2ccc(Cl)cc2)cn2c(C)nnc12 (stereo not drawn) [Example 72, N-(tert-butyl)-4-(6-(4-chlorophenyl)-5-(3,8-dimethyl-[1,2,4]triazolo[4,3-a]pyridin-6-yl)-1-isopropyl-4-oxo-1,4,5,6-tetrahydropyrrolo[3,4-d]imidazol-2-yl)-5,6-dihydropyridine-1(2H)-carboxamide] | >10 µM | 0.0969 µM | 0.746 µM
5 | 0.299 µM | 0.0925 µM | 0.0306 µM | 0.0936 µM | 0.058 µM | 16.1 µM | 0.15 µM | COc1cc(N2C(=O)c3nc(C4=CCN(C)CC4)n(C(C)C)c3C2c2ccc(Cl)cc2)cc2c1nnn2C (stereo not drawn) [Example 73] | >10 µM | 0.0527 µM | 0.2545 µM
6 | 8.65 µM | 0.024 µM | 0.78 µM | 1.6 µM | 0.017 µM | 4.9 µM | 0.027 µM | Cc1cc(N2C(=O)c3nc(C4CCNCC4)n(C(C)C)c3C2c2ccc(Cl)cc2)cn2c(C)nnc12 (stereo not drawn) [Example 75, 6-(4-chlorophenyl)-5-(3,8-dimethyl-[1,2,4]triazolo[4,3-a]pyridin-6-yl)-1-isopropyl-2-(Piperidin-4-yl)-5,6-dihydropyrrolo[3,4-d]imidazol-4(1H)-one] | >10 µM | 1.125 µM | 8.63 µM

More lines, now with the values behind:

Row | Structure (SMILES) | GI50 (K-562 cells) | IC50 (BRD3 (His-Brd3(20-477))) | GI50 (MV-4-11 cells) | GI50 (THP-1 cells) | IC50 (BRD4 (His-Brd4(44-477))) | IC50 [1] | IC50 (BRD2 (His-Brd2(60-472))) | K-562 TGI (K-562 cells) | MV-4-11 TGI (MV-4-11 cells) | THP-1 TGI (THP-1 cells)
7 | COc1cc(N2C(=O)c3nc(C4=CCCN(C)C4)n(C(C)C)c3C2c2ccc(Cl)cc2)cc2c1nnn2C (stereo not drawn) [Example 62] | 0.391 µM | 0.086 µM | 0.0419 µM | 0.164 µM | 0.12 µM | 31.4 µM | 0.15 µM | >10 µM | 0.08025 µM | 0.3315 µM
8 | COc1cc(N2C(=O)c3nc(C)n(C(C)C)c3C2c2ccc(Cl)cc2)cc2c1nnn2C (stereo not drawn) [Example 63] | 0.458 µM | 0.0965 µM | 0.0882 µM | 0.192 µM | 0.072 µM | 21.9 µM | 0.24 µM | >10 µM | 0.141 µM | 0.369 µM
9 | COC(=O)N1CC=C(c2nc3c(n2C(C)C)C(c2ccc(Cl)cc2)N(c2cc(C)c4nnc(C)n4c2)C3=O)CC1 (stereo not drawn) [Example 65, methyl 4-(6-(4-chlorophenyl)-5-(3,8-dimethyl-[1,2,4]triazolo[4,3-a]pyridin-6-yl)-1-isopropyl-4-oxo-1,4,5,6-tetrahydropyrrolo[3,4-d]imidazol-2-yl)-5,6-dihydropyridine-1(2H)-carboxylate] | 0.298 µM | 0.0275 µM | 0.0193 µM | 0.138 µM | 0.024 µM | 4 µM | 0.05 µM | >10 µM | 0.03895 µM | 0.2995 µM
10 | CC(=O)N1CC=C(c2nc3c(n2C(C)C)C(c2ccc(Cl)cc2)N(c2cc(C)c4nnc(C)n4c2)C3=O)CC1 (stereo not drawn) [Example 66] | 5.54 µM | 0.066 µM | 0.233 µM | 1.76 µM | 0.0315 µM | 3.45 µM | 0.086 µM | >10 µM | 0.43 µM | 5.86 µM
11 | Cc1cc(N2C(=O)c3nc(C4=CCN(S(C)(=O)=O)CC4)n(C(C)C)c3C2c2ccc(Cl)cc2)cn2c(C)nnc12 (stereo not drawn) [Example 67, 6-(4-chlorophenyl)-5-(3,8-dimethyl-[1,2,4]triazolo[4,3-a]pyridin-6-yl)-1-isopropyl-2-(1-(methylsulfonyl)-1,2,3,6-tetrahydropyridin-4-yl)-5,6-dihydropyrrolo[3,4-d]imidazol-4(1H)-one] | 5.41 µM | 0.0205 µM | 0.165 µM | 1.28 µM | 0.017 µM | 5.2 µM | 0.038 µM | >10 µM | 0.3325 µM | 3.275 µM
12 | CCN1CC=C(c2nc3c(n2C(C)C)C(c2ccc(Cl)cc2)N(c2cc(C)c4nnc(C)n4c2)C3=O)CC1 (stereo not drawn) [Example 68, 6-(4-chlorophenyl)-5-(3,8-dimethyl-[1,2,4]triazolo[4,3-a]pyridin-6-yl)-2-(1-ethyl-1,2,3,6-tetrahydropyridin-4-yl)-1-isopropyl-5,6-dihydropyrrolo[3,4-d]imidazol-4(1H)-one] | 1.38 µM | 0.0445 µM | 0.0213 µM | 0.259 µM | 0.03 µM | 5 µM | 0.077 µM | >10 µM | 0.0371 µM | 0.458 µM
